Data set [1] in a line: Body weight in H-460 xenograft mice (Example 1). The data set is classed as in vivo, mouse. Conditions: 15 mg/kg i.v. As to the method: (§1) Sizes of the primary tumors were measured through the skin with calipers once per week. Tumor volumes were calculated by the formula V═(W^2*L)/2. Body weight of the mice in each group was also measured once per week during the experimental period. All animals were sacrificed following thirty-two days of treatment. Primary tumors were excised and weighed on an electronic balance. Blood samples were taken during terminal sacrifice and placed in microhematocrit tubes containing EDTA. Complete Blood Counts (CBC) and reticulocyte analysis were performed with the Cell Dyn 3700 analyzer (Abbott Diagnostics), as described by the manufacturer.
Thus, differences in tumor progression as measured by mean tumor volumes could not be attributed to any generalized toxicity or suppression of normal metabolism that might have been detected by changes in body weights.

A further data set concerns human H-460 lung tumors. Nature of the data set: Subcutaneously implanted human H-460 lung tumor mouse xenograft (Example 1). The data set is classed as in vivo. Conditions: 15 mg/kg i.v. The text has this:
Immuno-compromised athymic CD-1 nu/nu nude mice males (5-6 weeks old) were used in this study (Charles River Laboratories, Wilmington, Mass.). Animals were maintained in a HEPA-filtered environment during the experimental period. Cages, food, and bedding were autoclaved. Animal diets were obtained from Harlan Teklad (Madison, Wis.). […] The human H460 lung cancer cell line used was obtained from the National Cancer Institute. (Brower et al., (1986) Cancer Res 46:798-806.) Xenografted H-460 tumors are sensitive to chemotherapeutics commonly used in treatment of lung cancer. […] A stock tumor was established by subcutaneously injecting a cell suspension into nude mice. The resulting tumor was maintained in nude mice subcutaneously as tumor stock prior to use. Tumor implantation was performed when the stock tumors were in log phase of growth. Before implantation, tumor tissue was harvested from stock mice and placed in RPMI-1640 medium. Necrotic tissues were dissected away and viable tissues were cut into 1-2 mm^2 pieces. Tumor fragments were then transplanted subcutaneously to the right flank of the nude mice. Treatment (administration of compounds of the present invention) was started when the inoculated tumors reached approximately 100 mm^3, and continued for four weeks. […] [table] Sizes of the primary tumors were measured through the skin with calipers once per week. […] Body weight of the mice in each group was also measured once per week during the experimental period. All animals were sacrificed following thirty-two days of treatment. Primary tumors were excised and weighed on an electronic balance. Blood samples were taken during terminal sacrifice and placed in microhematocrit tubes containing EDTA. Complete Blood Counts (CBC) and reticulocyte analysis were performed with the Cell Dyn 3700 analyzer (Abbott Diagnostics), as described by the manufacturer.
(Xenograft models place foreign cells or tissue in a host animal.)

Data set [2] in a line: Complete blood counts and reticulocyte analysis in H-460 xenograft mice (Example 1). The data set is classed as in vivo, mouse. Conditions: study end; 15 mg/kg i.v. As to the method:
as §1

A further data set has as its system H460 tumor cells. Put plainly: Subcutaneous H460 lung tumor xenograft, tumor growth delay study in combination with chemotherapeutics (Example 6). Type of data set: in vivo, mouse. Conditions: Cmpd A 60 mg/kg p.o., paclitaxel 15 mg/kg i.v., carboplatin 120 mg/kg i.p.; for Median TTE (Time-to-Endpoint, tumor volume >= 2 cc): vehicle group 16.2. As to the method: This study was used to determine the effect of combined treatments where compounds and methods of the invention were combined with conventional anti-tumor therapies. These experiments were performed essentially as described above in Example 3, except that 1×10^7 H460 tumor cells were implanted subcutaneously to the flanks of female Harlan nude animals. The number of animals in each group was 10. Treatments were initiated when tumors reached an average size of approximately 100 mm^3.
The study design was representative of tumor progression studies of the TGD (Tumor Growth Delay) type, using a protocol that required individual animals to be humanely euthanized after reaching a set endpoint of tumor volume greater than or equal to 2 cc.
These two chemotherapeutic agents are of two broad classes of conventional anti-tumor therapeutics: microtubule poisons (paclitaxcel); and DNA-directed agents, including the sub-classification of DNA alkylating agents (carboplatin). In tumor-bearing human patients, conventional anti-tumor therapy commonly use of one or both classes of chemotherapeutic agents.
The study was initiated with administration of conventional anti-tumor treatment or vehicle control, and followed one day after with administration of Compound A or vehicle control. […] (See Table 11 and Table 12 for compound and chemotherapeutic agent dosing schedule.)
Tumor progression was determined for each treatment group and is presented as median Time-to-Endpoint (TTE).

Another data set concerns human A549 lung tumors. Put plainly: Subcutaneously implanted human A549 lung tumor mouse xenograft (Example 2). Type of data set: in vivo.
Data set [3] deals with human H-460-GFP lung tumors. Put plainly: Orthotopically implanted human H-460-GFP lung tumor mouse xenograft, survival and metastasis (Example 3). The data set is classed as in vivo. Conditions: 7.5 mg/kg i.v. on days 3, 7, 11. As to the method:
To examine the effect of methods and compounds of the present invention in a metastatic model of tumor progression, compounds of the invention were administered to orthotopically implanted H-460-GFP xenografted animals. Tumor models employing surgical orthotopic implantation (SOI) into the organ of origin of the original tumor are regarded as representative of cancer progression and metastasis in humans. Orthotopic implantation of H-460 increases the rate of tumor metastasis.
This experiment is carried out as described in Example 1 above, with the following modifications. To aid in identification and scoring of metastasis, the human H-460 lung cancer cell line was replaced by genetically-engineered tumors of GFP-transfected H-460 cells. 1-2 mm^3 H460-GFP lung tumor fragments were implanted by surgical orthotopic implantation (SOI) and sutured directly into lung tissue. (Yang et al., (1998) Cancer Res 58:4217-4221.) Dosing was initiated immediately after successful confirmation of tumor take by fluorescent GFP imaging (˜5 days following tumor implantation). Doxorubicin (DOX, 7.5 mg/kg, i.v. administration) was used as a chemotherapy control, and was administered on treatment days 3, 7, and 11.
In addition to weekly caliper measurement of primary tumor size, GFP imaging was performed on animals to monitor primary tumor progression and metastasis, starting the first day of treatment. Study endpoints were reached when an average tumor size of 2 cc or three morbid mice appear in any one group, whichever occurs first, regardless of treatment duration. Each animal was checked daily for mortality or signs of morbidity. Morbid animals were frozen. All animals, including dead animals, were examined by GFP imaging for primary tumor and metastasis at necropsy. Imaging and caliper measurements were used to determine the effects of treatment. Primary tumors were excised, measured and weighed at necropsy. Blood samples were taken during terminal sacrifice and complete blood counts (CBC) and reticulocyte analysis were performed.
Tumor metastasis is associated with increased morbidity and mortality in humans with metastatic cancer and in animal models of metastatic cancer. […] The increased morbidity and mortality were recorded and animals were preserved for subsequent necropsy. The study was terminated after >3 animals were found morbid in the vehicle group on treatment day 14, at which point the remaining animals were sacrificed to evaluate and compare tumor progression in the various treatment groups.
To determine metastatic frequency, the thoracic and abdominal cavities of animals were examined by fluorescent imaging.

Marks after values point to notes of the source that are not given here.

Take `CC(=O)O[C@H]1C(=O)[C@@]2(C)[C@H]([C@H](OC(=O)c3ccccc3)[C@]3(O)C[C@H](OC(=O)[C@H](O)[C@@H](NC(=O)c4ccccc4)c4ccccc4)C(C)=C1C3(C)C)[C@]1(OC(C)=O)CO[C@@H]1C[C@@H]2O` [Taxol, paclitaxel, reference compound]: in data set [1] (day 0), the “mean animal body weight” value was determined as 26.6 grams. The “mean animal body weight” value in data set [1] (day 10) is recorded as 29.5 grams. In addition, the “mean animal body weight” value in data set [1] (day 17) is recorded as 30.6 grams. Further, the “mean animal body weight” value in data set [1] (day 24) worked out at 31.1 grams. For the same compound, the “mean animal body weight” value in data set [1] (day 31) is reported as 30.9 grams. In the data set with human H-460 lung tumors (day 0), this compound showed a mean tumor volume of 83 mm^3. This compound also displayed a mean tumor volume in the data set on human H-460 lung tumors (day 10) of 387 mm^3. Besides, the mean tumor volume in the data set with human H-460 lung tumors (day 17) is reported as 813** mm^3. The mean tumor volume with human H-460 lung tumors (day 24) is listed as 1160** mm^3. In the data set on human H-460 lung tumors (day 31), the mean tumor volume is recorded as 1292** mm^3. The “Mean Tumor Weight at Necropsy” value in the data set on human H-460 lung tumors (day 32) was determined as 1.59 g. For the same compound, in data set [2], the “Abs Retic (reticulocyte count)” value was 462, the Baso % stood at 0.67%, the “Baso (basophils)” value stood at 70 µL⁻¹ and the EOS % is 0.83%. Also, in data set [2], the “Eos (eosinophil count)” value came out at 70 µL⁻¹, the “HCT (hematocrit)” value was found to be 41.5%, the “HGB (hemoglobin)” value was 14.1 g/dL and the “IRF (immature RET fraction)” value came out at 0.56. Further, in data set [2], the Lymph % worked out at 24.7%, the “Lymph (lymphocytes)” value is 2600 µL⁻¹, the “MCH (mean corpuscular hemoglobin)” value is on record as 15.6 pg and the “MCV (mean corpuscular volume)” value was found to be 45.9 fL. In data set [2], the “Mono (monocytes)” value was found to be 300 µL⁻¹, the Neut % is on record as 70.8%, the “Neut (neutrophils)” value was found to be 7400 µL⁻¹ and the “PLAT (platelets)” value worked out at 1.943e+06 µL⁻¹. Further, in data set [2], the “RBC (red blood cells)” value came to 9.03e+06 µL⁻¹, the “RDW (RBC distribution width)” value stood at 21.8%, the “RET (reticulocytes)” value stood at 5.1% and the “WBC (white blood cells)” value is 10400 µL⁻¹. In addition, in the data set with H460 tumor cells, the “% TGD, Percent Tumor Growth Delay (vs. Group control)” value is listed as 104%; the “T-C (Test-control, difference of medians)” value worked out at 16.9 days; the “Median TTE (Time-to-Endpoint, tumor volume >= 2 cc)” value is recorded as 33.1 days. Also, in the data set with human A549 lung tumors (15 mg/kg i.v.), the “tumor weight at necropsy, Mean” value stood at 0.45 g. Further, in the data set with human A549 lung tumors (week 0, 15 mg/kg i.v.), the “A549 mean tumor volume” value amounted to 106 mm^3. Also, the “A549 mean tumor volume” value in the data set on human A549 lung tumors (week 1, 15 mg/kg i.v.) worked out at 130 mm^3. Besides, the “A549 mean tumor volume” value in the data set on human A549 lung tumors (week 2, 15 mg/kg i.v.) came out at 152 mm^3. For the same compound, in the data set with human A549 lung tumors (week 3, 15 mg/kg i.v.), the “A549 mean tumor volume” value was 177 mm^3. Also, the “A549 mean tumor volume” value with human A549 lung tumors (week 4, 15 mg/kg i.v.) was 179 mm^3. Besides, the “A549 mean tumor volume” value in the data set with human A549 lung tumors (week 5, 15 mg/kg i.v.) is 186 mm^3. The “A549 mean tumor volume” value in the data set with human A549 lung tumors (week 6, 15 mg/kg i.v.) is listed as 231 mm^3. Also, the “A549 mean tumor volume” value in the data set on human A549 lung tumors (week 7, 15 mg/kg i.v.) is listed as 275 mm^3. The “A549 mean tumor volume” value with human A549 lung tumors (week 8, 15 mg/kg i.v.) is on record as 347 mm^3. The “A549 mean tumor volume” value in the data set with human A549 lung tumors (week 9, 15 mg/kg i.v.) is on record as 360 mm^3. In addition, the “increase in mean tumor volume” value with human A549 lung tumors (within 1 week (7 days) from start, Taxol 15 mg/kg i.v., vehicle control 45%) is recorded as 23%.
Turning to `COc1cccc2c1C(=O)c1c(O)c3c(c(O)c1C2=O)C[C@@](O)(C(=O)CO)C[C@@H]3O[C@H]1C[C@H](N)[C@H](O)[C@H](C)O1` [DOX, Doxorubicin, reference compound], in data set [3] (vehicle 9/10), the “Metastatic Incidence (proportion of animals exhibiting mediastinal lymph node metastasis)” value is on record as 4/10^#. The “proportion of surviving animals” value in data set [3] (treatment day 9), in data set [3] (treatment day 11), in data set [3] (treatment day 12), in data set [3] (treatment day 13) and in data set [3] (treatment day 14) was 10/10 each time.
On to `N.N.O=C([O-])C1(C(=O)[O-])CCC1.[Pt+2]` [carboplatin], for which, in the data set on H460 tumor cells, the “% TGD, Percent Tumor Growth Delay (vs. Group control)” value is 107%; the “T-C (Test-control, difference of medians)” value is listed as 17.3 days; the “Median TTE (Time-to-Endpoint, tumor volume >= 2 cc)” value amounted to 33.5 days.

Values taken from patent US8530404B2, “Compounds and methods for treatment of cancer” (FibroGen, Inc., priority 2005, dated 2013).
